In brackets after ≈: the same amount, converted by molar mass.
Experiments:
DNA = experiment: DNA-drug binding by difference spectral (absorption and CD) techniques; settings: difference spectral or ΔTm techniques
From the text: ^b Diff. Absorption Spectra is the calculated absorption spectra
obtained by subtracting the spectrum of the DNAbound analogue from the
spectrum of the free analogue, measured at 340-600 nm.
^c Diff. CD Spectra is the calculated CD Spectra obtained as the
difference of the DNAbound from the combined individual spectra of
analogues and DNA at 340-600 nm.
Medium: 0.01 M phosphate containing 10^-4 EDTA, buffer pH 7.0.
DNA-DRUG BINDING BY DIFFERENCE SPECTRAL AND THERMAL DEVATURATION OF DNA (ΔTm) TECHNIQUES
These experiments were performed according to the methods described by Sengupta et al., Cancer Chemother. Rep., 1974, 58, p. 35, Sengupta et al, J. Med. Chem., 1981, 24, p. 1052 and Sengupta et al, 1983, 26, p. 448, Sengupta et al, 1978, Biochem. Biophys Acta, 521, p. 89.

[1] = tested on: P388 lymphocytic leukemia; experiment: In vivo P388 assay; parameters: species or system mice; settings: ip days 1,5,9; for % ILS (percent increase in life span) / MST (median survival time) / Cure (over 60 day survivors): at optimum dose; for % ILS (percent increase in life span) / MST (median survival time): CDF1 male mice; for MST (median survival time): control MST 11.0 days; for Cure (over 60 day survivors): group of 7 CDF1 male mice, average of 2 experiments
Experimental: ^c 10^6 P388 cells implanted intraperitoneally on day 0 into a
group of 7 CDF1 male mice. Drugs were administered, also ip, in 10%
Me2 SO--saline on days 1,5,9. Test solutions were kept at 0-4.degree
C., protected from light.
These analogues were tested for antitumor activity against P388 lymphocytic leukemia in male CDF1 hybrid mice (Table 6). The tumor was implanted intraperitoneally (ip) with 10^6 cells. The drugs were administered once daily on days 1, 5, 9 beginning 1 day after implantation.

[2] = tested on: human lymphoblastic leukemia cells (CCRF-CEM); experiment: In vitro growth inhibition of CCRF-CEM cells; assay type: cell-based; settings: for In Vitro (CCRF-CEM) ID50: cells in log-phase growth, suspension culture, final growth medium 5% Me2SO
Experimental: ^b Human lymphoblastic luekemia cells in logphase growth and in a
suspension culture. Compounds were dissolved in Me2 SO medium, final
growth medium contained 5% Me2 SO.
In vitro growth inhibition of the analogues were assayed against human lymphoblastic leukemia cells (CCRF-CEM) in log phase. The most cyctoxic are AMD-OZN analogues 2b and 2g and AMD-OZL analogues 4a-4c. However, compared to AMD, they are several fold less cytotoxic to CEM-cells in vitro.

[3] = Solubility in distilled water
Experimental: SOLUBILITY OF ACTINOMYCIN D AND ANALOGUES 2b, 3b AND 4b IN DISTILLED WATER AT 20° C. AND 4° C.

SMILES	DNA binding (in words) (DNA)	% ILS (percent increase in life span) [1] [%]	MST (median survival time) [1] [days]	Cure (over 60 day survivors) [1]	In Vitro (CCRF-CEM) ID50 [2] [µg/mL]	antitumor activity against P388 (in words) ([1]; CDF1 mice)	activity against human cancer cells (in words) ([2]; human cancer cells)	relative solubility in water (in words) [3]	solubility in distilled water ([3]; 4° C.) [µg/mL]	solubility in distilled water ([3]; 20° C.) [µg/mL]
Cc1c2oc3c(C)ccc(C(=O)N[C@@H]4C(=O)N[C@H](C(C)C)C(=O)N5CCC[C@H]5C(=O)N(C)CC(=O)N(C)[C@@H](C(C)C)C(=O)O[C@@H]4C)c3nc-2c(C(=O)N[C@@H]2C(=O)N[C@H](C(C)C)C(=O)N3CCC[C@H]3C(=O)N(C)CC(=O)N(C)[C@@H](C(C)C)C(=O)O[C@@H]2C)cc1=O [2-deamino AMD]	binds to DNA strongly by intercalation									
Cc1ccc(C(=O)N[C@@H]2C(=O)N[C@H](C(C)C)C(=O)N3CCC[C@H]3C(=O)N(C)CC(=O)N(C)[C@@H](C(C)C)C(=O)O[C@@H]2C)c2c1Oc1c(c(C(=O)N[C@@H]3C(=O)N[C@H](C(C)C)C(=O)N4CCC[C@H]4C(=O)N(C)CC(=O)N(C)[C@@H](C(C)C)C(=O)O[C@@H]3C)c3nc(-c4ccccc4)oc3c1C)N2 [Compound 3b, 2-PHENYL-9,11-DIMETHYL-5H-OXAZOLO[4,5-b]PHENOXAZINE 4,6-BIS[CARBONYL-L-THREONYL-D-VALYL-L-PROLYLSARCOSYL-L-N-METHYL-VALINE-(TH REONINE HYDROXYL)] LACTONE]		109	23	0/7	9					
Cc1ccc(C(=O)N[C@@H]2C(=O)N[C@H](C(C)C)C(=O)N3CCC[C@H]3C(=O)N(C)CC(=O)N(C)[C@@H](C(C)C)C(=O)O[C@@H]2C)c2c1Oc1c(c(C(=O)N[C@@H]3C(=O)N[C@H](C(C)C)C(=O)N4CCC[C@H]4C(=O)N(C)CC(=O)N(C)[C@@H](C(C)C)C(=O)O[C@@H]3C)c3nc(-c4c(F)c(F)c(F)c(F)c4F)oc3c1C)N2 [Compound 3c]		72	19	0/7	12.5					
Cc1c2oc3c(C)c4oc(-c5ccccc5)nc4c(C(=O)N[C@@H]4C(=O)N[C@H](C(C)C)C(=O)N5CCC[C@H]5C(=O)N(C)CC(=O)N(C)[C@@H](C(C)C)C(=O)O[C@@H]4C)c3nc-2c(C(=O)N[C@@H]2C(=O)N[C@H](C(C)C)C(=O)N3CCC[C@H]3C(=O)N(C)CC(=O)N(C)[C@@H](C(C)C)C(=O)O[C@@H]2C)cc1=O [Compound 4b, 2-PHENYL-9,11-DIMETHYL-8-OXO-8H-OXAZOLO[4,5-b]PHENOXAZINE 4,6-BIS[CARBONYL-L-THREONYL-D-VALYL-L-PROLYLSARCOSYL-L-N-METHYLVALINE-(THR EONINE HYDROXYL)] LACTONE]		300	44	2/7	0.31	most active	highest human antitumor effects	more soluble in water at 4 °C than at 20 °C	11000 (≈ 8.1 mM)	1700 (≈ 1.25 mM)
Cc1c2oc3c(C)c4oc(-c5c(F)c(F)c(F)c(F)c5F)nc4c(C(=O)N[C@@H]4C(=O)N[C@H](C(C)C)C(=O)N5CCC[C@H]5C(=O)N(C)CC(=O)N(C)[C@@H](C(C)C)C(=O)O[C@@H]4C)c3nc-2c(C(=O)N[C@@H]2C(=O)N[C@H](C(C)C)C(=O)N3CCC[C@H]3C(=O)N(C)CC(=O)N(C)[C@@H](C(C)C)C(=O)O[C@@H]2C)cc1=O [Compound 4c]		172	30	1/7	0.63					

Source: patent US4562176A, “Method and composition for treating cancer” (priority 1985, dated 1985)
